From patent publication US8367658B2, “Pyrazin-2-yl-pyridin-2-yl-amine and pyrazin-2-yl-pyrimidin-4-yl-amine compounds and their use” (Cancer Research Technology Limited, priority 2007, dated 2013) come the findings set out here.

Molecules are shown by their SMILES. Bounds are passed on as bounds.

The target of the experiment is T1, CHK1 (Homo sapiens, UniProt O14757).
T1 sequence (O14757 1-476): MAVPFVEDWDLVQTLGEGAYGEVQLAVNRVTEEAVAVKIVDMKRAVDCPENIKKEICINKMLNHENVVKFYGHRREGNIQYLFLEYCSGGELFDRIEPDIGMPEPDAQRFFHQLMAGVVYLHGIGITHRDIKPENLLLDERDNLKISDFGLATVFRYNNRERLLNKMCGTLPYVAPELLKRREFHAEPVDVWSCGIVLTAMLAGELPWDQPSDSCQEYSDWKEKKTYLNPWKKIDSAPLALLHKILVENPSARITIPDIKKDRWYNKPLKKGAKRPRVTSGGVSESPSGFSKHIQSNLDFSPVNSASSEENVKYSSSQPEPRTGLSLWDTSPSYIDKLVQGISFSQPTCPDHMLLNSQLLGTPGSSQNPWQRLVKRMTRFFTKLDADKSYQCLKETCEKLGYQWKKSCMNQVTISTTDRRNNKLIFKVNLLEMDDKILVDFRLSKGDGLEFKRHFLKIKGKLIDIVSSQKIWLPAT
Kind of experiment: CHK1 kinase function inhibition assay (DELFIA, phosphorylation of a CDC25C peptide). The note with it: CHK1 1 nM, ATP 30 μM, 30 minutes at room temperature. The experiment is classed as biochemical. The procedure:
Measurement of Inhibition of CHK1 Kinase Function
CHK1 kinase function was measured in a DELFIA® assay in order to monitor phosphorylation of a CDC25C peptide using a specific phospho antibody.
The reaction mixture was incubated for 30 minutes at room temperature and then stopped by the addition of buffer (125 μL) containing 40 mM EDTA, 0.05% Tween 20, 0.1% BSA in TBS (10× concentrate, Sigma). An aliquot (100 μL) of the stopped reaction mixture was transferred to a black neutravidin-coated plate (Perbio) and incubated for 1 hour on a shaker (Titertek, Flow Laboratories) at room temperature. […] The plates were washed a further four times with wash buffer before the addition of enhancement solution (100 μL/well, PerkinElmer Life Sciences).
As to `COC(=O)c1cnc(Nc2cnc(C#N)cn2)cc1NC1CC2CCC(C1)N2Cc1ccccn1` (stereo not drawn) [Compound Y-080, Methyl 6-(5-cyanopyrazin-2-ylamino)-4-(8-(pyridin-2-ylmethyl)-8-azabicyclo[3.2.1]octan-3-ylamino)nicotinate], the IC50 was not above 100 nM.

With `COC(=O)c1cnc(Nc2cnc(C#N)cn2)cc1NCC[C@H]1CNCCO1` [Compound Y-082, (S)-Methyl 6-(5-cyanopyrazin-2-ylamino)-4-(2-(morpholin-2-yl)ethylamino)nicotinate], the half-inhibitory concentration (IC50) is not above 100 nM.

Consider `COC(=O)c1cnc(Nc2cnc(C#N)cn2)cc1NCC1(F)CCNCC1` [Compound Y-083, Methyl 6-(5-Cyanopyrazin-2-ylamino)-4-((4-fluoropiperidin-4-yl)methylamino)nicotinate], for which the IC50 is not above 100 nM.

Regarding `COCCNC(=O)c1cnc(Nc2cnc(C#N)cn2)cc1NCC1CCNCC1` [Compound Y-084, 6-(5-Cyanopyrazin-2-ylamino)-N-(2-methoxyethyl)-4-(piperidin-4-ylmethylamino)nicotinamide], the IC50 is not above 100 nM.

In turn, `CCNC(=O)c1cnc(Nc2cnc(C#N)cn2)cc1NC1CCN(C)CC1` [Compound Y-085, 6-(5-Cyanopyrazin-2-ylamino)-N-ethyl-4-(1-methylpiperidin-4-ylamino)nicotinamide] returned an IC50 not above 100 nM.

In the case of `CC(C)NC(=O)c1cnc(Nc2cnc(C#N)cn2)cc1NCC1CCNCC1` [Compound Y-086, 6-(5-Cyanopyrazin-2-ylamino)-N-isopropyl-4-(piperidin-4-ylmethylamino)nicotinamide], the IC50 is not above 100 nM.

On to `N#Cc1cnc(Nc2cc(NCC3CCNCC3)c(C(=O)N3CCCC3)cn2)cn1` [Compound Y-087, 5-(4-(Piperidin-4-ylmethylamino)-5-(pyrrolidine-1-carbonyl)pyridin-2-ylamino)pyrazine-2-carbonitrile], for which the IC50 is not above 100 nM.

For the compound `N#Cc1cnc(Nc2cc(NCC3CCNCC3)c(C(=O)NCCO)cn2)cn1` [Compound Y-088, 6-(5-Cyanopyrazin-2-ylamino)-N-(2-hydroxyethyl)-4-(piperidin-4-ylmethylamino)nicotinamide], the IC50 lay within 100 to 1000 nM.

`N#Cc1cnc(Nc2cc(NCC3CCNCC3)c(C(=O)N3CCOCC3)cn2)cn1` [Compound Y-089, 5-(5-(Morpholine-4-carbonyl)-4-(piperidin-4-ylmethylamino)pyridin-2-ylamino)pyrazine-2-carbonitrile] returned an IC50 of 1000 to 10000 nM.

In the case of `COCCN(C)C(=O)c1cnc(Nc2cnc(C#N)cn2)cc1NCC1CCNCC1` [Compound Y-091, 6-(5-Cyanopyrazin-2-ylamino)-N-(2-methoxyethyl)-N-methyl-4-(piperidin-4-ylmethylamino)nicotinamide], the IC50 was in the range of 100 to 1000 nM.

`N#Cc1cnc(Nc2cc(NCC3CCNCC3)c(C(=O)Nc3ccc(F)cc3)cn2)cn1` [Compound Y-092, 6-(5-Cyanopyrazin-2-ylamino)-N-(4-fluorophenyl)-4-(piperidin-4-ylmethylamino)nicotinamide] returned a half-inhibitory concentration (IC50) of 100 to 1000 nM.

`N#Cc1cnc(Nc2cc(NCC3CCNCC3)c(C(=O)Nc3ccccc3F)cn2)cn1` [Compound Y-093, 6-(5-Cyanopyrazin-2-ylamino)-N-(2-fluorophenyl)-4-(piperidin-4-ylmethylamino)nicotinamide] showed an IC50 of 100 to 1000 nM.

On to `N#Cc1cnc(Nc2cc(NCC3CCNCC3)c(C(=O)Nc3cccc(F)c3)cn2)cn1` [Compound Y-094, 6-(5-Cyanopyrazin-2-ylamino)-N-(3-fluorophenyl)-4-(piperidin-4-ylmethylamino)nicotinamide], for which the IC50 is 100 to 1000 nM.

Turning to `COc1ccc(NC(=O)c2cnc(Nc3cnc(C#N)cn3)cc2NCC2CCNCC2)cc1` [Compound Y-095, 6-(5-Cyanopyrazin-2-ylamino)-N-(4-methoxyphenyl)-4-(piperidin-4-ylmethylamino)nicotinamide], the half-maximal inhibitory concentration (IC50) was not above 100 nM.

On to `COc1cccc(NC(=O)c2cnc(Nc3cnc(C#N)cn3)cc2NCC2CCNCC2)c1` [Compound Y-096, 6-(5-Cyanopyrazin-2-ylamino)-N-(3-methoxyphenyl)-4-(piperidin-4-ylmethylamino)nicotinamide], for which the half-maximal inhibitory concentration (IC50) is not above 100 nM.

Consider `COc1ccccc1NC(=O)c1cnc(Nc2cnc(C#N)cn2)cc1NCC1CCNCC1` [Compound Y-097, 6-(5-Cyanopyrazin-2-ylamino)-N-(2-methoxyphenyl)-4-(piperidin-4-ylmethylamino)nicotinamide], for which the IC50 is 100 to 1000 nM.

As to `N#Cc1cnc(Nc2cc(NCC3CCNCC3)c(C(=O)Nc3ccc(OCCN4CCOCC4)cc3)cn2)cn1` [Compound Y-098, 6-(5-Cyanopyrazin-2-ylamino)-N-(4-(2-morpholinoethoxy)phenyl)-4-(piperidin-4-ylmethylamino)nicotinamide], the concentration for half-maximal inhibition (IC50) is not above 100 nM.

The compound `N#Cc1cnc(Nc2cc(NCC3CCNCC3)c(C(=O)Nc3cccc(N4CCOCC4)c3)cn2)cn1` [Compound Y-099, 6-(5-Cyanopyrazin-2-ylamino)-N-(3-morpholinophenyl)-4-(piperidin-4-ylmethylamino)nicotinamide] gave an IC50 not above 100 nM.

In the case of `N#Cc1cnc(Nc2cc(NCC3CCNCC3)c(C(=O)Nc3ccc(N4CCOCC4)cc3)cn2)cn1` [Compound Y-100, 6-(5-Cyanopyrazin-2-ylamino)-N-(4-morpholinophenyl)-4-(piperidin-4-ylmethylamino)nicotinamide], the IC50 is not above 100 nM.

As for `N#Cc1cnc(Nc2cc(NCC3CCNCC3)c(C(N)=O)cn2)cn1` [Compound Y-101, 6-(5-Cyanopyrazin-2-ylamino)-4-(piperidin-4-ylmethylamino)nicotinamide], the IC50 fell in the range of 100 to 1000 nM.

Consider `N#Cc1cnc(Nc2cc(NCC3CNCCO3)c(C(=O)Nc3ccccc3)cn2)cn1` (stereo not drawn) [Compound Y-102, 6-(5-Cyanopyrazin-2-ylamino)-4-(morpholin-2-ylmethylamino)-N-phenylnicotinamide], for which the IC50 is not above 100 nM.

In turn, `CN1CCC(Nc2cc(Nc3cnc(C#N)cn3)ncc2C(=O)Nc2ccccc2)CC1` [Compound Y-103, 6-(5-Cyanopyrazin-2-ylamino)-4-(1-methylpiperidin-4-ylamino)-N-phenylnicotinamide] gave an IC50 not above 100 nM.

In turn, `CN1CCC(Nc2cc(Nc3cnc(C#N)cn3)ncc2C(=O)O)CC1` [Compound Y-104, 6-(5-Cyanopyrazin-2-ylamino)-4-(1-methylpiperidin-4-ylamino)nicotinic acid] had an IC50 of 1000 to 10000 nM.

For the compound `COC(=O)c1cnc(Nc2cnc(C)cn2)cc1NC1CCN(C)CC1` [Compound Y-105, methyl 4-(1-methylpiperidin-4-ylamino)-6-(5-methylpyrazin-2-ylamino)nicotinate], the IC50 was not above 100 nM.

Consider `COC(=O)c1cnc(Nc2cnc(OC)cn2)cc1NCC1CNCCO1` (stereo not drawn) [Compound Y-106, Methyl 6-(5-methoxypyrazin-2-ylamino)-4-(morpholin-2-ylmethylamino)nicotinate], for which the IC50 was in the range of 100 to 1000 nM.

Take `CN1CCC(Nc2cc(Nc3cnc(C#N)cn3)ncc2Cl)CC1` [Compound Y-108, 5-(5-Chloro-4-(1-methylpiperidin-4-ylamino)pyridin-2-ylamino)pyrazine-2-carbonitrile]: the IC50 is not above 100 nM.

As to `CN1CCC(N(C)c2cc(Nc3cnc(C#N)cn3)ncc2Cl)CC1` [Compound Y-109, 5-(5-Chloro-4-(methyl(1-methylpiperidin-4-yl)amino)pyridin-2-ylamino)pyrazine-2-carbonitrile], the IC50 is 100 to 1000 nM.

As for `CN1CCC(Nc2cc(Nc3cnc(C#N)cn3)ncc2Br)CC1` [Compound Y-110, 5-(5-Bromo-4-(1-methylpiperidin-4-ylamino)pyridin-2-ylamino)pyrazine-2-carbonitrile], the half-maximal inhibitory concentration (IC50) was not above 100 nM.

As to `CN1CCC(Nc2cc(Nc3cnc(C#N)cn3)ncc2-c2ccccc2)CC1` [Compound Y-111, 5-(4-(1-Methylpiperidin-4-ylamino)-5-phenylpyridin-2-ylamino)pyrazine-2-carbonitrile], the half-inhibitory concentration (IC50) is not above 100 nM.

Compound `CN1CCC(Nc2cc(Nc3cnc(C#N)cn3)ncc2-c2ccsc2)CC1` [Compound Y-112, 5-(4-(1-methylpiperidin-4-ylamino)-5-(thiophen-3-yl)pyridin-2-ylamino)pyrazine-2-carbonitrile] had a concentration for half-maximal inhibition (IC50) not above 100 nM.

Compound `CN1CCC(N(C)c2cc(Nc3cnc(C#N)cn3)ncc2-c2ccccc2)CC1` [Compound Y-113, 5-(4-(methyl(1-methylpiperidin-4-yl)amino)-5-phenylpyridin-2-ylamino)pyrazine-2-carbonitrile] showed an IC50 of 100 to 1000 nM.

Regarding `COc1ccc(-c2cnc(Nc3cnc(C#N)cn3)cc2NC2CCN(C)CC2)cc1` [Compound Y-114, 5-(5-(4-methoxyphenyl)-4-(1-methylpiperidin-4-ylamino)pyridin-2-ylamino)pyrazine-2-carbonitrile], the 50% inhibitory concentration (IC50) was not above 100 nM.

In the case of `COCc1cccc(-c2cnc(Nc3cnc(C#N)cn3)cc2NC2CCN(C)CC2)c1` [Compound Y-115, 5-(5-(3-(methoxymethyl)phenyl)-4-(1-methylpiperidin-4-ylamino)pyridin-2-ylamino)pyrazine-2-carbonitrile], the half-inhibitory concentration (IC50) is not above 100 nM.
